# Where “and” joins values, the source holds several entries; their conditions need not be identical. Equal entries are not always repeated. Where two headings read alike, the source gives them in different places.
# Key:
# [1] = Liver dosimetry of PFHxSA and PFHxS by targeted LC/MS/MS; format: in vivo, rat; conditions: for concentration at 24 h: Sprague Dawley (Crl:CD(SD)), rat, liver, oral
# Source text: The plasma and liver samples for this investigation were provided by Mutlu et al.. The study design, including detailed descriptions of animal handling, procedures for dosing, clinical observations, termination, and collection of tissues, is reported elsewhere and is consistent with the ARRIVE guidelines. Briefly, male and female Sprague Dawley (SD) rats (Crl:CD(SD)) (n = 48/sex, 96 total) were purchased from Charles River Laboratory (Raleigh, NC, USA) and allowed to acclimate for ≥5 days before initial dosing. Rats were 8–10 weeks old at the time of exposure. PFHxSA dosing solutions in corn oil were prepared on Day 0 and used over the course of the study. Rats of both sexes (n = 5/sex, dose, and time point, plus eight vehicle controls per sex) were dosed by oral gavage (5 mL/kg body weight) once daily for five days. […] The formulation concentrations decreased from 100 mg/kg/day at half-log10 intervals until the lowest dose level, which was a full log10 interval below the next higher dose, giving eight dose levels (0.01 to 100 mg/kg/day or 0.025 µmol/kg/day to 250 µmol/kg/day) in addition to vehicle controls. Doses were administered in randomized order within ± 1 h on each day of dosing. […] Rats were euthanized 24 h after the last dose. Blood was collected via cardiac puncture with tripotassium ethylene diamine tetraacetic acid (K3EDTA) as an anti-coagulant and centrifuged to collect cell-free plasma. Liver was collected and flash-frozen in liquid nitrogen. Liver, plasma, and dosing formulation samples were frozen at the USEPA Center for Computational Toxicology and Exposure (CCTE), Durham, NC, USA. Tissue samples (plasma and liver, n = 96 each) were stored at ≤−70 °C prior to extraction; dosing formulation samples (n = 9) were stored at −20 °C.
# Detailed information on solvents and standards used for targeted LC/MS/MS of PFHxSA and PFHxS can be found in SI Text S1 and SI Table S1. Plasma and liver preparations were modified from Conley et al.. Briefly, aliquots of plasma (25 µL) and liver (~10 mg) were spiked with PFOSA as an internal standard, as no isotope-labeled PFHxSA was available. Sample batches included up to 96 samples along with an MB, CCV, and LCS for QC. Commercial plasma (mixed-sex SD rat plasma) and liver (mixed-sex SD rat) were obtained from BioIVT (Westbury, NY, USA). Cold acetonitrile (ACN) with 0.1 M formic acid was used to precipitate proteins. Liver and plasma samples were prepared similarly, except that the livers were homogenized after solvent addition. Plasma samples were vortexed to mix before being chilled at −20 °C, after which samples were centrifuged at 5 °C and 10,000× g. Liver samples were chilled at −80 °C, then homogenized using an Omni International (Kennesaw, GA, USA) Bead Ruptor 24. Liver homogenates were centrifuged at 26,000× g and 5 °C. Supernatants from the extraction of both matrices were removed and stored at −20 °C until analysis. Refer to SI Text S4 for additional experimental details and information on calibration and QC parameters for quantitation of PFHxSA.
# Targeted LC/MS/MS of PFHxSA was performed on a Sciex 4000 QTRAP LC/MS/MS system operated in negative ESI mode with MRM scanning. A Restek (Bellefonte, PA, USA) Raptor Polar X (100 mm × 2 mm, 2.7 µm) column was used for liquid chromatography. Isocratic elution occurred over 10 min with a 30:70 ratio of mobile phase A (10 mM ammonium formate): mobile phase B (60:40 ACN: methanol). Both mobile phases included 0.05% formic acid. The LOQs for PFHxSA were 0.100 µM in plasma and 0.351 µM in liver. Additional details of the instrument method parameters for targeted analysis of PFHxSA are provided in SI Table S5. The MRM transitions for the PFHxSA method are provided in SI Table S6. […]
# [2] = In vitro-in vivo extrapolation (IVIVE) to estimate Css, human
# Procedure: Intrinsic hepatic clearance (Clint) and fraction unbound in plasma (fup) were calculated from the experimental point estimate data as described in Dobreniecki et al.. Steady-state concentrations (Css) were derived based on zero-order uptake of an assumed daily dose from the gut (assuming 100% intestinal bioavailability) but considering hepatic clearance and non-metabolic renal clearance. Renal clearance was calculated using the glomerular filtration rate (a species-dependent constant) and the fraction unbound in blood (fub), estimated by adjusting the experimental fup for blood/plasma partitioning. The Css calculations, along with underlying species-specific physiologic scalars, are detailed in SI Texts S6 and S7. […]
# hepatocytes). In equation (C), the scalar 2000 is used to adjust the assay cell number to be consistent with units of 1 million cells in the Clint equation.
# Text S7 In Vitro-In Vivo Extrapolation (IVIVE) Calculations
# The pharmacokinetic equation used to estimate expected steady-state concentrations (Css) is based on zero-order uptake of a daily dose from the gut (assuming 100% bioavailability) with both nonmetabolic renal clearance (Clrenal) and hepatic clearance (Clhepatic) (Equation D). The chemical input rate (ko) is the product of the intake dosage and the model body weight; this represents the numerator of Equation D. The Clrenal calculation is shown in the first part of the denominator of Equation D; it is the product of the species-dependent glomerular filtration rate (GFR) and the unbound fraction in blood (fub) of the parent compound. The Clhepatic calculation is shown in the second part of the denominator of Equation D; it is the product of the species-dependent liver blood flow constant, the fub of the parent compound, and the experimentally derived intrinsic clearance (shown in Equation C) divided by the sum of these three values. All values used in Equation D are for first-order conditions of metabolism in the […]
smiles,measurement,setting,value
"NS(=O)(=O)C(F)(F)C(F)(F)C(F)(F)C(F)(F)C(F)(F)C(F)(F)F [PFHxSA, Perfluorohexanesulfonamide]",PFHxSA Female Liver Conc. (wet weight),"[1]; PFHxSA 0.1 mg/kg/day oral 5 days, female, individual rats",0.491 µM and 0.599 µM and 0.338 µM and 0.434 µM
same,PFHxSA Male Liver Conc. (wet weight),"[1]; PFHxSA 0.1 mg/kg/day oral 5 days, male, individual rats",0.191 ng/mg and 0.0842 ng/mg and 0.479 µM and 0.211 µM and 0.156 ng/mg and 0.391 µM and 0.746 µM and 0.503 µM and 0.298 ng/mg and 0.201 ng/mg
same,PFHxSA Female Liver Conc. (wet weight),"[1]; PFHxSA 0.3 mg/kg/day oral 5 days, female, individual rats",1.47 µM and 1.96 µM and 1.26 µM and 1.74 µM
same,PFHxSA Male Liver Conc. (wet weight),"[1]; PFHxSA 0.3 mg/kg/day oral 5 days, male, individual rats",0.462 ng/mg and 0.399 ng/mg and 1.26 µM and 0.604 µM and 1.30 µM and 1.16 µM and 1.00 µM and 0.503 ng/mg
same,PFHxSA Female Liver Conc. (wet weight),"[1]; PFHxSA 1 mg/kg/day oral 5 days, female, individual rats",2.91 µM and 2.52 µM and 4.17 µM and 4.76 µM and 6.64 µM
same,PFHxSA Male Liver Conc. (wet weight),"[1]; PFHxSA 1 mg/kg/day oral 5 days, male, individual rats",0.846 ng/mg and 1.00 ng/mg and 1.09 ng/mg and 1.18 ng/mg and 2.12 µM and 2.51 µM and 2.73 µM and 2.97 µM
same,PFHxSA Female Liver Conc. (wet weight),"[1]; PFHxSA 3 mg/kg/day oral 5 days, female, individual rats",7.94 µM and 4.86 µM and 6.40 µM and 9.55 µM and 10.8 µM
same,PFHxSA Male Liver Conc. (wet weight),"[1]; PFHxSA 3 mg/kg/day oral 5 days, male, individual rats",1.92 ng/mg and 1.86 ng/mg and 1.63 ng/mg and 2.14 ng/mg and 4.81 µM and 4.67 µM and 4.08 µM and 5.36 µM
same,PFHxSA Female Liver Conc. (wet weight),"[1]; PFHxSA 10 mg/kg/day oral 5 days, female, individual rats",6.97 µM and 8.65 µM and 7.58 µM and 9.86 µM
same,PFHxSA Male Liver Conc. (wet weight),"[1]; PFHxSA 10 mg/kg/day oral 5 days, male, individual rats",5.65 ng/mg and 3.24 ng/mg and 4.53 ng/mg and 4.26 ng/mg and 14.2 µM and 8.13 µM and 11.4 µM and 10.7 µM
same,PFHxSA Female Liver Conc. (wet weight),"[1]; PFHxSA 30 mg/kg/day oral 5 days, female, individual rats",15.8 ng/mg and 7.72 ng/mg and 10.1 ng/mg and 8.88 ng/mg and 23.9 µM and 39.6 µM and 19.4 µM and 25.2 µM and 22.3 µM
same,PFHxSA Male Liver Conc. (wet weight),"[1]; PFHxSA 30 mg/kg/day oral 5 days, male, individual rats",4.86 ng/mg and 3.36 ng/mg and 4.47 ng/mg and 6.25 ng/mg and 12.2 µM and 8.43 µM and 11.2 µM and 15.7 µM
same,PFHxSA Female Liver Conc. (wet weight),"[1]; PFHxSA 100 mg/kg/day oral 5 days, female, individual rats",20.7 ng/mg and 12.3 ng/mg and 37.7 ng/mg and 20.9 ng/mg and 16.1 ng/mg and 52.0 µM and 30.8 µM and 94.6 µM and 52.3 µM and 40.3 µM
same,PFHxSA Male Liver Conc. (wet weight),"[1]; PFHxSA 100 mg/kg/day oral 5 days, male, individual rats",14.9 ng/mg and 19.0 ng/mg and 6.87 ng/mg and 4.89 ng/mg and 5.61 ng/mg and 37.4 µM and 47.6 µM and 17.2 µM and 12.3 µM
same,concentration at 24 h,"[1]; female, 0.1 mg/kg/day, PFHxSA 0.1 mg/kg/day oral 5 days, female, individual rats, read-out: PFHxSA Female Liver Conc. (wet weight)",436 nM and 174 ng/g
same,concentration at 24 h,"[1]; female, 0.3 mg/kg/day, PFHxSA 0.3 mg/kg/day oral 5 days, female rats, mean ± SD, read-out: PFHxSA Female Liver Conc.",1.69 ± 0.32 µM
same,concentration at 24 h,"[1]; female, 0.3 mg/kg/day, PFHxSA 0.3 mg/kg/day oral 5 days, female, individual rats, read-out: PFHxSA Female Liver Conc. (wet weight)",2.03 µM and 811 ng/g
same,concentration at 24 h,"[1]; female, 1 mg/kg/day, PFHxSA 1 mg/kg/day oral 5 days, female rats, mean ± SD, read-out: PFHxSA Female Liver Conc.",4.2 ± 1.6 µM
same,concentration at 24 h,"[1]; female, 3 mg/kg/day, PFHxSA 3 mg/kg/day oral 5 days, female rats, mean ± SD, read-out: PFHxSA Female Liver Conc.",7.91 ± 2.4 µM
same,concentration at 24 h,"[1]; female, 10 mg/kg/day, PFHxSA 10 mg/kg/day oral 5 days, female rats, mean ± SD, read-out: PFHxSA Female Liver Conc.",8.41 ± 1.1 µM
same,concentration at 24 h,"[1]; female, 10 mg/kg/day, PFHxSA 10 mg/kg/day oral 5 days, female, individual rats, read-out: PFHxSA Female Liver Conc. (wet weight)",8.98 µM and 3580 ng/g
same,concentration at 24 h,"[1]; female, 30 mg/kg/day, PFHxSA 30 mg/kg/day oral 5 days, female rats, mean ± SD, read-out: PFHxSA Female Liver Conc.",26.1 ± 7.9 µM
same,concentration at 24 h,"[1]; male, 0.3 mg/kg/day, PFHxSA 0.3 mg/kg/day oral 5 days, male rats, mean ± SD, read-out: PFHxSA Male Liver Conc.",1.06 ± 0.28 µM
same,concentration at 24 h,"[1]; male, 1 mg/kg/day, PFHxSA 1 mg/kg/day oral 5 days, male rats, mean ± SD, read-out: PFHxSA Male Liver Conc.",2.48 ± 0.39 µM
same,concentration at 24 h,"[1]; male, 1 mg/kg/day, PFHxSA 1 mg/kg/day oral 5 days, male, individual rats, read-out: PFHxSA Male Liver Conc. (wet weight)",821 ng/g and 2.06 µM
same,concentration at 24 h,"[1]; male, 3 mg/kg/day, PFHxSA 3 mg/kg/day oral 5 days, male rats, mean ± SD, read-out: PFHxSA Male Liver Conc.",4.67 ± 0.47 µM
same,concentration at 24 h,"[1]; male, 3 mg/kg/day, PFHxSA 3 mg/kg/day oral 5 days, male, individual rats, read-out: PFHxSA Male Liver Conc. (wet weight)",1780 ng/g and 4.45 µM
same,concentration at 24 h,"[1]; male, 10 mg/kg/day, PFHxSA 10 mg/kg/day oral 5 days, male rats, mean ± SD, read-out: PFHxSA Male Liver Conc.",10.6 ± 2.5 µM
same,concentration at 24 h,"[1]; male, 10 mg/kg/day, PFHxSA 10 mg/kg/day oral 5 days, male, individual rats, read-out: PFHxSA Male Liver Conc. (wet weight)",3370 ng/g and 8.44 µM
same,concentration at 24 h,"[1]; male, 30 mg/kg/day, PFHxSA 30 mg/kg/day oral 5 days, male rats, mean ± SD, read-out: PFHxSA Male Liver Conc.",11.6 ± 2.6 µM
same,concentration at 24 h,"[1]; male, 30 mg/kg/day, PFHxSA 30 mg/kg/day oral 5 days, male, individual rats, read-out: PFHxSA Male Liver Conc. (wet weight)",4320 ng/g and 10.8 µM
same,Css (steady-state concentration),"[2]; Human, IVIVE-derived, assumes 1 mg/kg/day exposure",1510 µM
same,CL renal,"[2]; Human, non-metabolic, GFR x fub, read-out: Clrenal (renal clearance) (converted)",0.0817 mL/min
same,Predicted Css in humans higher than rats,[2]; cross-species IVIVE comparison,3- to 10 fold
